# From US20090233957A1, “(-)-BELOXEPIN AND METHODS FOR ITS SYNTHESIS AND USE” (priority 2008, published 2009)
# Experiments:
# [1] = molecular target: T1, cloned human NE transporter (hNET) (Homo sapiens, UniProt P23975); assay: NE transporter binding assay, [3H]nisoxetine; conditions: membranes of CHO cells expressing hNET; read-out: NET Ki
# T1 construct: expressed in transfected cells; host or cells: CHO cells
# Description: Protocols. For the NE transporter binding assay, [^3H]nisoxetine (1.0 nM) was incubated with various concentrations of test compounds for 2 hours at 4° C. with membranes prepared from Chinese hamster ovary cells (CHO) cells heterologously expressing the cloned human NE transporter (hNET). Bound radioactivity was determined by scintillation spectroscopy.
# [2] = molecular target: T2, cloned human 5HT2A receptor (Homo sapiens, UniProt P28223); assay: 5HT2A receptor binding assay, [3H]ketanserin; conditions: HEK-293 membranes
# T2 construct: expressed in transfected cells; host or cells: HEK-293 cells
# Description: For the 5HT2A receptor binding assay, [^3H]ketanserin (0.5 nM) was incubated for 60 min at 22° C. with membranes prepared from HEK-293 cells heterologously expressing the cloned human 5-HT2A receptor according to the method of Bonhaus et al., 1995, Brit. J. Pharmacol. 115:622-628. Various concentrations of test compound were added and bound radioactivity was determined by scintillation counting. Non-specific binding was determined in the presence of 1.0 μM unlabeled ketanserin. The Ki value for the test compound was determined using standard methods.
# [3] = molecular target: T2, cloned human 5HT2A receptor; assay: 5HT2A functional assay, intracellular Ca2+ in HEK-293 cells; assay type: cell-based
# Description: (§1) Agonist effects at the 5HT2A receptor were assessed by incubation at 22° C. of a series of concentrations of test compound with intact HEK-293 cells heterologously expressing the cloned human 5HT2A receptor and measuring intracellular [Ca^2+] by fluorimetry according to the method of Jerman et al., 2001, Eur. J. Pharmacol. 414:23-30). Antagonist effects were assessed by the ability of a series of concentrations of test compound to block the increase in intracellular [Ca^2+] that occurred in the presence of 3.0 nM serotonin under the same conditions. EC50 and IC50 values were determined using standard methods.
# [4] = molecular target: T3, cloned human 5HT2B receptor (Homo sapiens, UniProt P41595); assay: 5HT2B receptor binding assay, [125I]DOI; conditions: CHO membranes
# T3 construct: expressed in transfected cells; host or cells: CHO cells
# Description: For the 5HT2B receptor binding assay, [^125I](±)[…] (DOI) (0.2 nM) was incubated for 15 min at 37° C. with membranes prepared from Chinese hamster ovary cells heterologously expressing the cloned human 5HT2B receptor according to the method of Choi et al., 1994, FEBS Lett 352:393-399. Various concentrations of test compound were added and bound radioactivity was determined by scintillation counting. Non-specific binding was determined in the presence of 1.0 μM unlabeled DOI. The Ki value for the test compound was determined using standard methods.
# [5] = molecular target: T3, cloned human 5HT2B receptor; assay: 5HT2B functional assay, intracellular Ca2+ in CHO cells; assay type: cell-based
# Description: as §1, with “5HT2B” for “5HT2A”, “CHO” for “HEK-293”, “Porter” for “Jerman”, “1991, Brit.” for “2001, Eur.”, “128:13-20.” for “414:23-30).”, “0.3” for “3.0”
# [6] = molecular target: T4, cloned human 5HT2C receptor (Homo sapiens, UniProt P28335); assay: 5HT2C receptor binding assay, [3H]mesulergine; conditions: CHO membranes
# T4 construct: expressed in transfected cells; host or cells: CHO cells
# T4 sequence (P28335 33-458): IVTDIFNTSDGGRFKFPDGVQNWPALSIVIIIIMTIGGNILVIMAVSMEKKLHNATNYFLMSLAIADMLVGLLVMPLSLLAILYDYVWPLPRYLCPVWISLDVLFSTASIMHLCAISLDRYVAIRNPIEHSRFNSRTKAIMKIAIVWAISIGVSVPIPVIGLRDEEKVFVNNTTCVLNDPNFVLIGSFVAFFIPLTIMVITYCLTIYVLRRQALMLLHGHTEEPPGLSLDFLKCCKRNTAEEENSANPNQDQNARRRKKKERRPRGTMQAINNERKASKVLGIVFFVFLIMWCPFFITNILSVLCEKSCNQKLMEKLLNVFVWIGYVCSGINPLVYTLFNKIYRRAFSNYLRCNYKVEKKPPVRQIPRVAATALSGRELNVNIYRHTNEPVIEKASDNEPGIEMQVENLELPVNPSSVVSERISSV
# Description: For the 5HT2C receptor binding assay, [^3H]mesulergine (1.0 nM) was incubated for 60 min at 37° C. with membranes prepared from Chinese hamster ovary cells heterologously expressing the cloned human 5-HT2C receptor according to the method of Stam et al., 1994, Eur. J. Pharmacol. 269:339-348. Various concentrations of test compound were added and bound radioactivity was determined by scintillation counting. Non-specific binding was determined in the presence of 10 μM RS102221. The Ki value for the test compound was determined using standard methods.
# [7] = molecular target: T5, human recombinant CYP2D6 (Homo sapiens, UniProt P10635); assay: CYP2D6 inhibition, MAMC substrate; assay type: in vitro ADME; conditions: microsomes with human recombinant CYP2D6; read-out: CYP2D6 Isoenzyme IC50
# T5 construct: purchased BD Bioscience
# Description: Protocol. […] The source of the enzyme was microsomes containing human recombinant CYP2D6 obtained from BD Bioscience. Conversion of MAMC to 7-hydroxy-4-(aminomethyl)coumarin was measured using a PerkinElmer Fusion with a 390 nm excitation filter and a 460 nm emission filter.
# [8] = tested on: rat hindpaw incision model; assay: rat hindpaw incisional pain model, tactile allodynia; assay type: in vivo; conditions: 30 mg/kg IP, 24 hours post-surgery
# Description: Protocol. A time course experiment was also performed with (−)-beloxepin in the hindpaw incision model. At 24 hours post-surgery, rats received vehicle or (−)-beloxepin (30 mg/kg IP). Rats were tested for tactile allodynia at 30, 60, 120 and 240 minutes after administration of (−)-beloxepin.
# Protocol. Another time course experiment was performed with (+)-beloxepin in the hindpaw incision model. At 24 hours post-surgery, rats received vehicle or (+)-beloxepin (30 mg/kg IP). Rats were tested for tactile allodynia at 30, 60, 120 and 240 minutes after administration of (+)-beloxepin.
# T3 sequence (P41595 whole entry): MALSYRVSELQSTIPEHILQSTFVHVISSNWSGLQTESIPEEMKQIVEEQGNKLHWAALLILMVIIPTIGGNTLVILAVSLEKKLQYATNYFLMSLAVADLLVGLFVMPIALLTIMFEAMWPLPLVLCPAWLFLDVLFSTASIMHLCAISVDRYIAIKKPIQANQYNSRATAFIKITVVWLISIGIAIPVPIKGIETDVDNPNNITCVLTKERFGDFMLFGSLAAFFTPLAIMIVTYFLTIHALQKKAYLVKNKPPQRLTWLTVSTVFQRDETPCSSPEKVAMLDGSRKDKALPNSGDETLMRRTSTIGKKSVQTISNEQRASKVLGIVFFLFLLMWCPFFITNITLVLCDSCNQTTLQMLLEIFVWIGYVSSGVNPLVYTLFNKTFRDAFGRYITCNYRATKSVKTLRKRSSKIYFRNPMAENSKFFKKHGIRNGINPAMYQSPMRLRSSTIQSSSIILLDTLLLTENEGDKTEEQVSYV
# T2 sequence (P28223 whole entry): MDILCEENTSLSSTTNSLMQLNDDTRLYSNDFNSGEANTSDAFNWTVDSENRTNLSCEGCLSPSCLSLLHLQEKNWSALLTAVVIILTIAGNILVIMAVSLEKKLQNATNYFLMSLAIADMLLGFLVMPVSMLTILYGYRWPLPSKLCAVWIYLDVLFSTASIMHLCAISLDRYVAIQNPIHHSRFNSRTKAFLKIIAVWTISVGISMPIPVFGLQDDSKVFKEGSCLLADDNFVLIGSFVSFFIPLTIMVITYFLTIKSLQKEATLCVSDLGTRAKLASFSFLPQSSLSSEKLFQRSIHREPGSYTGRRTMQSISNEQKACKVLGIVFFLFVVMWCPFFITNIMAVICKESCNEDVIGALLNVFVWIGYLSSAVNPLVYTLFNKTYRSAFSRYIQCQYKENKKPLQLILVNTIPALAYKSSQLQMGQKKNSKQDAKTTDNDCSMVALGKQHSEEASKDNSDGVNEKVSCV
# T1 sequence (P23975 whole entry): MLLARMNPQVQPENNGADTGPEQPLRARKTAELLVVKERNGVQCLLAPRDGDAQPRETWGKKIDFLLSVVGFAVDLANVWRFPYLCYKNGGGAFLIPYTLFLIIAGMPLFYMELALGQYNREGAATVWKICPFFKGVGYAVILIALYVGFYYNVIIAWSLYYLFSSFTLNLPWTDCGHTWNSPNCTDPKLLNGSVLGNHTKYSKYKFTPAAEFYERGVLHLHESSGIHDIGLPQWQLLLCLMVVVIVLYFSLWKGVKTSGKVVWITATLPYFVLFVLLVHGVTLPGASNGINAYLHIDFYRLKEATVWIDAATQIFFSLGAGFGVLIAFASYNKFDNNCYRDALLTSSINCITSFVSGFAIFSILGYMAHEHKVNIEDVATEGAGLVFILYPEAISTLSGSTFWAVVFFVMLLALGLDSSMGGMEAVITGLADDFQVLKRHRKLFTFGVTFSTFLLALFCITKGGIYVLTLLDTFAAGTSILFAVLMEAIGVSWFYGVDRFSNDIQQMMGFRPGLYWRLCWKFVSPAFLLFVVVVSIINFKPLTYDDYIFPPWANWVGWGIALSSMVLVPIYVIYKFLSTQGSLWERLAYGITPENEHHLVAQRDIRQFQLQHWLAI
# T5 sequence (P10635 whole entry): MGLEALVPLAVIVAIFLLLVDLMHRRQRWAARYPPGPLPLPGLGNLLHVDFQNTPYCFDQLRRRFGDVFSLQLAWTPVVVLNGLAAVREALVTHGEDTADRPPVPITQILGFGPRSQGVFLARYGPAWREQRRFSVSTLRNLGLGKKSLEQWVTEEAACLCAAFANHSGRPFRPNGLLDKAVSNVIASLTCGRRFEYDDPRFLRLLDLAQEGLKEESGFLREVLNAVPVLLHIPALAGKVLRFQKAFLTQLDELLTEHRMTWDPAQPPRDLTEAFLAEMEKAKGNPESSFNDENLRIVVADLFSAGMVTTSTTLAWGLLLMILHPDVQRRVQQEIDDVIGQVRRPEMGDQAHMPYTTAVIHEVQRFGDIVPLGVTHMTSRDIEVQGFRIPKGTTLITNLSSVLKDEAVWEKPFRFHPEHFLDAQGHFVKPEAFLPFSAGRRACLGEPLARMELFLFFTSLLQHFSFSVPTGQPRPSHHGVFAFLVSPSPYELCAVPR
smiles,measurement,setting,value
"Cc1cccc2c1Oc1ccccc1C1(O)CCN(C)CC21 (single isomer, unassigned; (+)) [(+)-beloxepin]",Ki,[1],2920 nM
same,Ki,[2],97 nM
same,5HT2A functional activity type,[3],antagonist
same,IC50,"[3]; antagonist mode, vs 3.0 nM serotonin",1600 nM
same,Ki,[4],170 nM
same,5HT2B functional activity type,[5],antagonist
same,IC50,"[5]; antagonist mode, vs 0.3 nM serotonin",690 nM
same,Ki,[6],84 nM
same,IC50,[7],236 nM
same,maximum hindpaw withdrawal threshold,[8]; 30 minute time point,~28 grams
same,antiallodynic effect,"[8]; tested 30, 60, 120, 240 min",significant antiallodynic effect at the 30 and 60 minute time points
